Reference: patent US20110104301A1, “METHODS OF REDUCING PAIN AND INFLAMMATION” (Georgetown University, A Congressionally Chartered …, priority 2008, published 2011)

Experiments:
Assay type in all cases: cell-based
[1] = target: T1, Drosophila TRPA1 (Drosophila melanogaster, UniProt Q7Z020); experiment: Current-voltage recordings in dTRPA1-expressing HEK293 cells; settings: desflurane at concentrations up to 3 mM
T1 construct: expressed in transfected cells; host or cells: HEK293
T1 sequence (Q7Z020 1-1197): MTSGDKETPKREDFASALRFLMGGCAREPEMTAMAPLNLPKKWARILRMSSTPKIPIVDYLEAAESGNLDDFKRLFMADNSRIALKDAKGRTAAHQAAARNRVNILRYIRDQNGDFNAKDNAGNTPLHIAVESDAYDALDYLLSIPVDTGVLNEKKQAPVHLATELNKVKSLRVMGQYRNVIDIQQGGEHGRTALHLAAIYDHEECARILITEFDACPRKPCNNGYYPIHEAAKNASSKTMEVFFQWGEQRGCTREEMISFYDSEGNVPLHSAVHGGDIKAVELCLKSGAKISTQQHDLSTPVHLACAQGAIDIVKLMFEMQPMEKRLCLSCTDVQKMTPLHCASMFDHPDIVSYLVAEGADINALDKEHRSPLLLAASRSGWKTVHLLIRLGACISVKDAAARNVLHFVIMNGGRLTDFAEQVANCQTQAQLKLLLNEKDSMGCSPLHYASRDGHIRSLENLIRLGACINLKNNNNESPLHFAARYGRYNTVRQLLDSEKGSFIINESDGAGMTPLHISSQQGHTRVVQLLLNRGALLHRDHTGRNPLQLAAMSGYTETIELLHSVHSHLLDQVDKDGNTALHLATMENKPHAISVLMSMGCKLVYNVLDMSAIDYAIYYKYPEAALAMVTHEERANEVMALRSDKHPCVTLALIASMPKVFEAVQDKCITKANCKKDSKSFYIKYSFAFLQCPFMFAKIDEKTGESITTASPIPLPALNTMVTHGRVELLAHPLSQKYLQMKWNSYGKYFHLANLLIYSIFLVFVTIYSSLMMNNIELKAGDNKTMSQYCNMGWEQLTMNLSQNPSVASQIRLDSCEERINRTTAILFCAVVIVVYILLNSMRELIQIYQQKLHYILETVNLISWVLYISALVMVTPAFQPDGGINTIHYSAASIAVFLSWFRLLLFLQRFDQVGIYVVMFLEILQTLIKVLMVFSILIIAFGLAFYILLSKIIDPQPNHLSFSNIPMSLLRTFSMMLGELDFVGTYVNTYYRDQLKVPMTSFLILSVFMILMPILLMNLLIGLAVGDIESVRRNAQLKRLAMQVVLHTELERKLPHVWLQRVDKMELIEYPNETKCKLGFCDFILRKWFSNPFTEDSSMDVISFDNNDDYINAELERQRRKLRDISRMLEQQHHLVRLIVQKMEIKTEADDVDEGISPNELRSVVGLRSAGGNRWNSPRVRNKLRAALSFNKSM
Protocol: A genetic approach was used to identify critical sites in TRPA1 and TRPV1 required for activation by general anesthetics. Drosophila TRPA1 is insensitive to desflurane (at concentrations up to 3 mM). […] Note that dTRPA1 is insensitive to AITC. Next, several chimeric TRP proteins containing dTRPA1 (unresponsive to desflurane) and mTRPA1 were tested. For the dTRPA1-mN chimera, the mouse 720 amino acid N-terminus was exchanged for the drosophila N-terminus. The N-terminal domain contains essential binding sites for AITC, and therefore studying this chimera tests an important role for the N-terminus in anesthetic-sensing. […] The mTRPA1-dTM5 construct was then studied, which is the mouse protein containing the fifth transmembrane domain of the drosophila protein.

[2] = target: TRPV1 (Rattus norvegicus, UniProt O35433); experiment: Whole-cell patch-clamp of TRPV1-expressing HEK293 cells; parameters: expressed in transfected cells; host or cells: HEK 293F (Invitrogen), co-transfected with GFP cDNA
Protocol: (§1) Electrophysiology. […] Whole-cell and single-channel patch-clamp recordings were performed by using an EPC8 amplifier (HEKA Electronics). For whole-cell and excised patch recordings the bath solution contained 140 mMNaCl, 4 mMKCl, 1 mMMgCl2, 1.2 mMCaCl2, 10 mMHepes, 10 mM glucose, pH 7.3. For cell-attached experiments, NaCl was replaced with KCl in the bath solution. […] For neuronal recording NaCl was replaced with K-gluconate (plus 1 mMATP, 0.2 mM GTP). Solutions were applied via a gravity-fed system. […] Voltage-dependent properties were measured as described in Matt and Ahern, J. Physiol. […] The baseline currents under control conditions were subtracted. For cell-attached experiments, peak amplitudes were measured from all-points histograms, and open probability was measured as NPo>750 ms. Defolliculated Xenopus laevis oocytes were injected with ≈10 ng of hTRPA1 (gift of Ardem Patapoutian, The Scripps Research Institute, La Jolla, Calif.).
HEK cell and sensory neuron electrophysiology. […] Cell cultures were maintained at 37° C. with 5% CO2. Cells were transfected with rat TRPV 1 (gift of David Julius), and GFP cDNA using Lipofectamine™ Transfection Reagent (Invitrogen) and used 24-48 h after transfection. Nodose ganglia were obtained from adult mice (C57B16/J and TRPV1-null), cut, digested with collagenase, and cultured in Neurobasal +2% B-27 medium (Invitrogen), 0.1% L-glutamine and 1% penicillin/streptomycin on poly-D lysine-coated glass coverslips at 37° C. in 5% CO2. Neurons were used within 24-36 hr of culture. Whole-cell and single-channel patch clamp recordings were performed using an EPC8 amplifier (HEKA). The current signal was low-pass filtered at 1-3 kHz and sampled at 4 kHz. Currents were further filtered for display purposes. For whole-cell and excised patch recordings the bath solution contained (in mM): 140 NaCl, 4 KCl, 1 MgCl2, 1 EGTA, 10 HEPES, 10 glucose pH 7.3 (290 mOsm). The pipette solution contained (in mM): 140 CsC1, 10 NaCl, 10 HEPES, 5 EGTA, 2 Mg ATP and 0.03 GTP, pH 7.3. The peak amplitudes measured either during the prepulse or the tail current (within 1 ms) were plotted as a function of the test potential and normalized to the maximal current obtained from the following Boltzmann function: […]

[3] = target: T2, TRPM8 (Rattus norvegicus, UniProt Q8R455); experiment: Whole-cell patch-clamp of TRPM8-expressing HEK293 cells
T2 construct: expressed in transfected cells; host or cells: HEK 293F
Protocol: as §1

[4] = isoflurane 0.9 mM, octanol 1 mM

Sequence of TRPV1 (O35433 whole entry): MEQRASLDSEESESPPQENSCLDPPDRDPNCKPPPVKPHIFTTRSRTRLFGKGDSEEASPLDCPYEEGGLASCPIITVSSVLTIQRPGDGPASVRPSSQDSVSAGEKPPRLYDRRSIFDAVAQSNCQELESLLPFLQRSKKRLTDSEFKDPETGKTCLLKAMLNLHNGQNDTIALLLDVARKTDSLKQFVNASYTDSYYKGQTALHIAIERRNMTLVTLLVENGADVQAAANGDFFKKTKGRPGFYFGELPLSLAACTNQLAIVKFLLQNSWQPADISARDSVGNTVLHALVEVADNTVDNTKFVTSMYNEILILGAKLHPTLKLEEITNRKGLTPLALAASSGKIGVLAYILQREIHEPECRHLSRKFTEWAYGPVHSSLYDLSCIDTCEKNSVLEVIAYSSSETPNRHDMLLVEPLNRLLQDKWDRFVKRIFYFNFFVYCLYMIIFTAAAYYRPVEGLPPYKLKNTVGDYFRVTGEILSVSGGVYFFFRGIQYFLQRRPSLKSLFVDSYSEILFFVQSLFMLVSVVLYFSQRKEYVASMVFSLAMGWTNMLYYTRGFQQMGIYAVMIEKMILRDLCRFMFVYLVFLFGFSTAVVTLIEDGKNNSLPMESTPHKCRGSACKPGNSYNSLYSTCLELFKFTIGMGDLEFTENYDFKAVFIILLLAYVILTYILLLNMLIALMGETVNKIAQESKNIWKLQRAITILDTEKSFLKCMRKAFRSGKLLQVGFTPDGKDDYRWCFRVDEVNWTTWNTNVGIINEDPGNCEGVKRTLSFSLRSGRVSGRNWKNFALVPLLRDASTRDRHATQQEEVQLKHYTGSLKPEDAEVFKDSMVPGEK
T2 sequence (Q8R455 whole entry): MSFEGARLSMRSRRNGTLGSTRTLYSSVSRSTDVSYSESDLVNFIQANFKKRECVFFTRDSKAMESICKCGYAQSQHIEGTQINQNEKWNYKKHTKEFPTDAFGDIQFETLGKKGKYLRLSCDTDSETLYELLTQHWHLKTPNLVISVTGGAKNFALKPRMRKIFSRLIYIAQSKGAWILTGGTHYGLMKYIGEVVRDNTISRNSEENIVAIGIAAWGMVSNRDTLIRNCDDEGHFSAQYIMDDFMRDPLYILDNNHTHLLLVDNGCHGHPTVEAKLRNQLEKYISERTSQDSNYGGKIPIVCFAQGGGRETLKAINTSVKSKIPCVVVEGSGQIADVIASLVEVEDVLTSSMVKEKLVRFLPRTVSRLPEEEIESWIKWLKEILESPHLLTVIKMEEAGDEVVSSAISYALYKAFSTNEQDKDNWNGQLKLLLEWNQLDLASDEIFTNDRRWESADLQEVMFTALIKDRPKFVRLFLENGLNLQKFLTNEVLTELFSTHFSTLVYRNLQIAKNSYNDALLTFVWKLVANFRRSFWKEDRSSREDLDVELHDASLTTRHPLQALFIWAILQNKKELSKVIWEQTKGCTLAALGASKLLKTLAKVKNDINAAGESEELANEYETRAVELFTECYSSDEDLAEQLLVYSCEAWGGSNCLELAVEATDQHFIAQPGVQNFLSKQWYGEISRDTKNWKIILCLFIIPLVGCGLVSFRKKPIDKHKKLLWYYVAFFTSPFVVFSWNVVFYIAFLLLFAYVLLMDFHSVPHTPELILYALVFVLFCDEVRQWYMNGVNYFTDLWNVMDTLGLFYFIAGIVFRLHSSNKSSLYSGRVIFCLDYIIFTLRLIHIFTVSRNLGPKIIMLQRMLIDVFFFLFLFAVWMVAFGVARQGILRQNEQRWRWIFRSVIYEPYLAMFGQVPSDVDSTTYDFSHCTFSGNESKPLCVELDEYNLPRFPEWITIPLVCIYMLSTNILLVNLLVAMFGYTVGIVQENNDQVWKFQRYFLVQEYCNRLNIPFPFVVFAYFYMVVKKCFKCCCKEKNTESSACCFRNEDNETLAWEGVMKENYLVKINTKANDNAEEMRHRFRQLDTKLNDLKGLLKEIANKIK

## FC(F)OC(F)C(F)(F)F (stereo not shown) [desflurane]
[1]
  Sensitivity of Drosophila TRPA1: insensitive

## FC(F)OC(Cl)C(F)(F)F (stereo not shown) [isoflurane]
[2]; 0.9 mM (2.9 MAC)
  Activation of TRPV1 currents: failed to activate
[2]; VGA 0.9 mM, PDBu 500 nM, room temperature (25° C.)
  Currents evoked after PDBu treatment in TRPV1-expressing HEK293 cells: activates currents
[2]; isoflurane 0.9 mM + octanol 1.8 mM
  Effect on TRPV1 when applied together with saturating octanol: negligible effects
[2]; isoflurane 0.9 mM, n=5
  Enhancement of maximal voltage-evoked TRPV1 current: 15±6%
  Reduction of TRPV1 V1/2: 23.0±6.2 mV
[2]; [4]
  Effects at TRPV1 at holding potential −50 mV: negligible effects
[2]; isoflurane 0.9 mM, control 161.5±2.7 mV
  V1/2 of TRPV1 voltage activation with isoflurane (Boltzmann fit): 129.0±3.6 mV
[3]; 0.9 mM (2.9 MAC)
  Activation of TRPM8 currents: failed to activate
[3]; [4]
  Effects at TRPM8 at holding potential −50 mV: negligible effects
